Data published in patent US11667623B2, “Scaffold of adenylyl cyclase inhibitors for chronic pain and opioid dependence” (Purdue Research Foundation, priority 2017, dated 2023).
Like-named read-outs stand apart in the source and are kept apart here.

What was measured:
hAC1 [1] = target: T1, hAC1 (Homo sapiens, UniProt Q08828); assay: Cyclic AMP accumulation (HTRF) in HEK cells stably expressing AC1, stimulated with A23187; type: cell-based; conditions: for inhibition at 30 µM: HEK293; for Selectivity AC1 vs AC8: AC8 IC50/AC1 IC50, without AC8 IC50, estimate based on IC50 ≥30 μM
T1 construct: expressed in transfected cells
Protocol: The screen was carried out using HEK cells stably expressing AC1 (HEK-AC1) and cyclic AMP accumulation was stimulated using the Ca^2+ ionophore, A23187 to selectively activate AC1.
Both AC1 and AC8 are robustly activated by Ca^2+/CaM under a variety of conditions, whereas the effects of Ca^2+/CaM on AC3 are modest and conditional requiring activation by G proteins.
The primary technology we employed to measure cAMP accumulation was a homogenous time-resolved fluorescence (HTRF) assay, the same technology utilized in the primary screen. […]
(§1) Briefly, cryopreserved cells were thawed, resuspended in optiMEM (Life Technologies), and plated in white, flat bottom, low-volume, tissue culture-treated 384 well plates (PerkinElmer, Shelton, Conn.). Plates with cells were incubated in a 37° C. humidified incubator for 1 h. Inhibitors were added and plates were incubated at room temperature for 30 min followed by the addition of AC stimulants in the presence of 500 μM IBMX. Cells were incubated at room temperature for 1 h and cAMP accumulation was measured using Cisbio's cAMP kit (Cisbio Bioassays, Bedford, Mass.) according to the manufacturer's instructions.

hAC8 = target: T2, hAC8 (Homo sapiens, UniProt P40145); assay: Cyclic AMP accumulation (HTRF) in HEK cells stably expressing AC8, stimulated with A23187; type: cell-based; conditions: for inhibition at 30 µM: HEK293; for hAC8 % Inhib: at 30 μM, negative values indicate a potentiated response
T2 construct: expressed in transfected cells
Protocol: Fresh powders of several robust inhibitors (>90% inhibition) were evaluated in multiple confirmation assays assessing the dose response relationship for inhibiting AC1 and AC8 activity. Confirmation assays used A23817 to selectively stimulate recombinant AC1 or AC8 in the HEK cell background (Cumbay and Watts (2001), J. Pharmacol Exp Ther 297:1201-1399). This approach takes advantage of one unique regulatory property of AC1 for the development of selective inhibitors. Both AC1 and AC8 are robustly activated by Ca^2+/CaM under a variety of conditions, whereas the effects of Ca^2+/CaM on AC3 are modest and conditional requiring activation by G proteins. Previous studies have identified unique Ca^2+/CaM binding domains as one possible site of interaction to achieve AC1 (vs. AC8) selectivity (Masada et al., 2012, Biochemistry 51:7917-7929).
The primary technology we employed to measure cAMP accumulation was a homogenous time-resolved fluorescence (HTRF) assay, the same technology utilized in the primary screen.
Human embryonic kidney (HEK) cells stably expressing AC1, AC8, or AC1 with the MOR were cultured in Dulbecco's Modified Eagle Medium (Life Technologies, Grand Island, N.Y.) supplemented with 5% bovine calf serum (Hyclone, Logan, Utah), 5% fetal clone I (Hyclone), Antibiotic-Antimycotic (Life Technologies), and G418 (Invivogen, San Diego, Calif.) (HEK-AC1), or hygromycin B (Fisher Scientific, Pittsburgh, Pa.) (HEK-AC8), or G418 and puromycin (Sigma-Aldrich) (HEK-AC1/MOR). Chinese hamster ovary (CHO) cells expressing the MOR (CHO-MOR) in the PathHunter® β-Arrestin GPCR assay platform were purchased from DiscoveRx (Freemont, Calif.). Cells were grown in Ham's F12 media supplemented with 1 mM L-glutamine (Thermo Scientific, West Palm Beach, Fla.), 10% fetal bovine serum (Hyclone), 50 Um′ penicillin, 50 μg/ml streptomycin (Life Technologies), G418 and hygromycin B. Cells were grown and frozen as previously described (J. M. Conley, et al., J Vis Exp, e51218 (2014)).
as §1, with “Cyclic AMP accumulation was measured as previously described (Brust, et al., J. Pharmacol. Exp. Ther. 352, 480-493(2015)). Briefly,” for “Briefly,”

HEK-AC1 cells [2] = tested on: HEK-AC1 cells
Protocol: Cell viability assays were conducted with HEK-AC1 cells following plating and compound incubation protocols identical to the procedures described above in “Cyclic AMP assays in cells”. Cell viability was measured as a percentage of vehicle using 2% Triton X-100 (Sigma-Aldrich) as a control. The CellTiter-Glo® Luminescent Cell Viability Assay kit from Promega (Madison, Wis.) was employed to assess cell viability according to the manufacturer's instructions. Luminescence counts were measured using a Synergy 4.

hAC2 [3] = target: T3, hAC2 (Homo sapiens, UniProt Q08462); assay: Cyclic AMP accumulation in stable HEK-AC2 cells, stimulated with 100 nM PMA; type: cell-based; conditions: Table 1, at 30 μM, negative = potentiated, n = 2
T3 construct: expressed in transfected cells
Protocol: as §1, with “Cyclic AMP accumulation was measured as previously described (Brust, et al., J. Pharmacol. Exp. Ther. 352, 480-493(2015)). Briefly,” for “Briefly,”

hAC5 [4] = target: T4, hAC5 (Homo sapiens, UniProt O95622); assay: Cyclic AMP accumulation in stable HEK-AC5 cells, stimulated with 300 nM forskolin; type: cell-based; conditions: Table 1, at 30 μM, negative = potentiated, n = 2
T4 construct: expressed in transfected cells
Protocol: as §1, with “Cyclic AMP accumulation was measured as previously described (Brust, et al., J. Pharmacol. Exp. Ther. 352, 480-493(2015)). Briefly,” for “Briefly,”

chronic pain responses [5] = conditions: mice; literature; cited from earlier work
chronic pain responses [6] = conditions: rats; literature; cited from earlier work
hAC2 [7] = target: T3, hAC2; conditions: Table 1; at 30 μM; 100 nM PMA; data from Brust et al. 2017; cited from earlier work
HEK-AC1 cells [8] = conditions: data from Brust et al. 2017; cited from earlier work
hAC5 [9] = target: T4, hAC5; conditions: Table 1; at 30 μM; 300 nM forskolin; data from Brust et al. 2017; cited from earlier work
hAC1 [10] = target: T1, hAC1; conditions: Table 1; data from Brust et al. 2017; cited from earlier work
[11] = Table 2, read-out: HEK-AC1 IC50
[12] = Table 1, stable HEK cells, A23187-stimulated cAMP, n ≥ 3
[13] = Table 1, stable HEK cells, A23187-stimulated cAMP, n ≥ 3, read-out: hAC1 IC50
[14] = Table 1, stable HEK cells, A23187-stimulated cAMP, n ≥ 3, read-out: hAC8 IC50

T2 sequence (P40145 whole entry): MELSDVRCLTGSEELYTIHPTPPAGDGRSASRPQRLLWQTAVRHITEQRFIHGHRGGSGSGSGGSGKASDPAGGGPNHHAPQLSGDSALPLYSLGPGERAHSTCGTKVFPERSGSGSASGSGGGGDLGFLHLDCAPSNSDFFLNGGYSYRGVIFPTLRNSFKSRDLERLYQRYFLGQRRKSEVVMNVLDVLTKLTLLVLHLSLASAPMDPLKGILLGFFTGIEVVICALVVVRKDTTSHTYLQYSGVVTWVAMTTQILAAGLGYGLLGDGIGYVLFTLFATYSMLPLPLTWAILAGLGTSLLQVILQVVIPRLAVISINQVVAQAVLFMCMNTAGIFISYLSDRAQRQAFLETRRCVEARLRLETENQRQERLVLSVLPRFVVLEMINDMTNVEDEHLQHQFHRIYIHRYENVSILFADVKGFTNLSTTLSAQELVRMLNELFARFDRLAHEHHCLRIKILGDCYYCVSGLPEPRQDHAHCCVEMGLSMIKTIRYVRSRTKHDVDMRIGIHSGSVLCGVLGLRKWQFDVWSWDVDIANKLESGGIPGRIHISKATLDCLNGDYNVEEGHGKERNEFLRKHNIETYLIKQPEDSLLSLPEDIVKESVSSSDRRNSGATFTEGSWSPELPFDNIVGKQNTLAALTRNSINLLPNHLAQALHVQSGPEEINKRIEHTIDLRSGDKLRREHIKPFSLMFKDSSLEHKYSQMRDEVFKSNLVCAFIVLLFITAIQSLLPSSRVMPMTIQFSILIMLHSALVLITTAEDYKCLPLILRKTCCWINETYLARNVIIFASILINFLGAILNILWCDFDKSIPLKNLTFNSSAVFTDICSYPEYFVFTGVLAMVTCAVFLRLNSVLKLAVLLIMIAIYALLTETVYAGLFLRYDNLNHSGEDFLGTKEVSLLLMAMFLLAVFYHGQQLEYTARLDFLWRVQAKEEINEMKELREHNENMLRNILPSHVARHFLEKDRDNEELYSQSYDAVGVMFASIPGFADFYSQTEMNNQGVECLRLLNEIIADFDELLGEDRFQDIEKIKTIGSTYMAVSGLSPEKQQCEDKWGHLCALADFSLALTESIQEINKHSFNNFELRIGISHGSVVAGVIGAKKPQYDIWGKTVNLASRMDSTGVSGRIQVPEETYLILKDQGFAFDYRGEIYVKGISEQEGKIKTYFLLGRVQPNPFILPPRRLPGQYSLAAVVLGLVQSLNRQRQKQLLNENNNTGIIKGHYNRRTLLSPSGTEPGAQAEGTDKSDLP
T3 sequence (Q08462 whole entry): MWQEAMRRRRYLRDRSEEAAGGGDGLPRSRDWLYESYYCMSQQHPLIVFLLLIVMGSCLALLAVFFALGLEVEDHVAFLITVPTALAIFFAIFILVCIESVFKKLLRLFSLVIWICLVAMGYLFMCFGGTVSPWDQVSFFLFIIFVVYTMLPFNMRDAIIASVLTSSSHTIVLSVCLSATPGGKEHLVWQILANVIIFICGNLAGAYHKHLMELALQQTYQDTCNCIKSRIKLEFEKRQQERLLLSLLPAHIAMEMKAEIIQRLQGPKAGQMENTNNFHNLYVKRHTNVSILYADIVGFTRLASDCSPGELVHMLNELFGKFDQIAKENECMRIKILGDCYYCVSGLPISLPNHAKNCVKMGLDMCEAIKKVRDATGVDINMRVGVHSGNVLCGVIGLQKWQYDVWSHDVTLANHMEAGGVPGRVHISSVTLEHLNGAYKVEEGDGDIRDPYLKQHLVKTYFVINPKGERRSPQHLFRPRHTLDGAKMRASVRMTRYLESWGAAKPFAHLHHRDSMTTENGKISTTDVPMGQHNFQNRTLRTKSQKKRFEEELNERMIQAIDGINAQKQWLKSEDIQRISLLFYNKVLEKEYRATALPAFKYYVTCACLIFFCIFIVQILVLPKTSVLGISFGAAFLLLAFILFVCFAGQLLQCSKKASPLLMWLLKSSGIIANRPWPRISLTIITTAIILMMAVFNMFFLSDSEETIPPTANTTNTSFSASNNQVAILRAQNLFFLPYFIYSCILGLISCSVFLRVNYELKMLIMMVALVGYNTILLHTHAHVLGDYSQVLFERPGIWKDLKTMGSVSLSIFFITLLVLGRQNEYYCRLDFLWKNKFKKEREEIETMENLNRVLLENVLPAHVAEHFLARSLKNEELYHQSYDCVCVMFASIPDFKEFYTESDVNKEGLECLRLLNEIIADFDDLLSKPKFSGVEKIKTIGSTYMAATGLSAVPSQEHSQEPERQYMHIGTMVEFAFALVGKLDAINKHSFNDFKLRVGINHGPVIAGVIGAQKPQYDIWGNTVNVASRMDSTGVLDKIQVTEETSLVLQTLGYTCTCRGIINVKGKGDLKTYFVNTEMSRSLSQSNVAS
T1 sequence (Q08828 whole entry): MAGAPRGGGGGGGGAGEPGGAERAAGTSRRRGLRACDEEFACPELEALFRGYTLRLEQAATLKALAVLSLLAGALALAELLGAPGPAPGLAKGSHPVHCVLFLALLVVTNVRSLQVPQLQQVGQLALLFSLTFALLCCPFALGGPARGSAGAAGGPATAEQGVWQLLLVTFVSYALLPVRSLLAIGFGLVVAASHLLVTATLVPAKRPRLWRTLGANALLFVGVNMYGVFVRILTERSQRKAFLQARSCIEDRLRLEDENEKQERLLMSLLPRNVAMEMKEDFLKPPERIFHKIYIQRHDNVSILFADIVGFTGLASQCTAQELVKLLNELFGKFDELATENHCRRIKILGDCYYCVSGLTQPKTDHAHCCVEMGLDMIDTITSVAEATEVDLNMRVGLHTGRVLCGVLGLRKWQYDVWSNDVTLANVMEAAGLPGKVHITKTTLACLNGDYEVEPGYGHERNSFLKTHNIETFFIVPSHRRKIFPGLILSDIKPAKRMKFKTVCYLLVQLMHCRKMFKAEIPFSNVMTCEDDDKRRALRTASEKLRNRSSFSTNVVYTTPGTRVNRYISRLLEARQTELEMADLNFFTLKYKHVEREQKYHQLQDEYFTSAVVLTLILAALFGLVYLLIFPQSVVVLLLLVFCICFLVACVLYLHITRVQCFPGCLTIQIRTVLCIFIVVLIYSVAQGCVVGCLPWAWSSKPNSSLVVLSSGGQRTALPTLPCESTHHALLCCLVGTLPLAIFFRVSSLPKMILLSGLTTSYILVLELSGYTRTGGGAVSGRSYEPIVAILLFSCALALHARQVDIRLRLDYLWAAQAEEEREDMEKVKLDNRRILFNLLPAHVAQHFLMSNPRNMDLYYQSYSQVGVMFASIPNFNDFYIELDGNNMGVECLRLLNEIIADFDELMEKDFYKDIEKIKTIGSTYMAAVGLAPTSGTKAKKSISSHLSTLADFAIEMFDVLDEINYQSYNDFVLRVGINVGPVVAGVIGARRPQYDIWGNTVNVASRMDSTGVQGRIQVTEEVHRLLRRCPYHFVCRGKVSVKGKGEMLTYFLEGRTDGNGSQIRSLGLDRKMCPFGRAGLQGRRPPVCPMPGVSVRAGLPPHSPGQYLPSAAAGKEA
T4 sequence (O95622 whole entry): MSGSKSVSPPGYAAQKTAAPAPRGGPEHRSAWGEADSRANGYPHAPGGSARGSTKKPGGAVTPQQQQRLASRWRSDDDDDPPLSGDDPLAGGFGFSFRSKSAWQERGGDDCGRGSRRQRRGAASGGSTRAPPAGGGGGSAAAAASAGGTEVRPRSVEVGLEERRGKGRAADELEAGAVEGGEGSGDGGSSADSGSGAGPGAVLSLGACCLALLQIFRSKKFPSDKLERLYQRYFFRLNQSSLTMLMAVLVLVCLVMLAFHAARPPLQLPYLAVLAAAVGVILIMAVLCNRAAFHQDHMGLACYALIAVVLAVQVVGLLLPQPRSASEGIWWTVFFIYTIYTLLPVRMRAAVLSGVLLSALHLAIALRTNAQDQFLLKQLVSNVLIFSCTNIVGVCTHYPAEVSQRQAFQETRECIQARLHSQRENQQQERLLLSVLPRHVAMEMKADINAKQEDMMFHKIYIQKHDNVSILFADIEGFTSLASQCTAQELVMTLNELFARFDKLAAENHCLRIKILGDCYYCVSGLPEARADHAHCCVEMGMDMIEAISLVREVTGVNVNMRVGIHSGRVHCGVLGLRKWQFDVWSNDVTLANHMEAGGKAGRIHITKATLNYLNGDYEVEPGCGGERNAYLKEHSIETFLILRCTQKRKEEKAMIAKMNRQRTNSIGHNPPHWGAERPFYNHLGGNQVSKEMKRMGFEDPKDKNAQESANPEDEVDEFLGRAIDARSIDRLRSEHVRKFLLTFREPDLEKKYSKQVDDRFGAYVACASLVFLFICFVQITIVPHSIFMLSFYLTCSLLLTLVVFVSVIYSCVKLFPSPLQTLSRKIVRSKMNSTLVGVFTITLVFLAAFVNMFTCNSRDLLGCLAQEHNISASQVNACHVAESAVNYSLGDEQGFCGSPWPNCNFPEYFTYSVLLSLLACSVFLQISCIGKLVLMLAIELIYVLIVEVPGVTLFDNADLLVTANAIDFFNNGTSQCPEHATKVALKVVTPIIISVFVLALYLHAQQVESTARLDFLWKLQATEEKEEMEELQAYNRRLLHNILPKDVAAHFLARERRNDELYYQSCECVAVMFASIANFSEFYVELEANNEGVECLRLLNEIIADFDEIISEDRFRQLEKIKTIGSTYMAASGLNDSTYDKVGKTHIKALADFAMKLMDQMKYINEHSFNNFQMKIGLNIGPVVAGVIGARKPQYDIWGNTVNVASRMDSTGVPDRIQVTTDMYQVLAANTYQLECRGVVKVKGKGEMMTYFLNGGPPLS

Row | Structure (SMILES) | inhibition at 30 µM (hAC1 [1]; Table 2) [%] | IC50 (hAC1 [1]; [11]) [µM] | inhibition at 30 µM (hAC8; Table 2) [%] | Selectivity AC1 vs AC8 (hAC1 [1]) | hAC1 % Inhib (hAC1 [1]; [12]) [%] | IC50 (hAC1 [1]; [13]) [µM] | Viability % Veh (HEK-AC1 cells [2]) [% Veh] | hAC2 % Inhib (hAC2 [3]) [%] | hAC8 % Inhib (hAC8; Table 1) [%] | hAC5 % Inhib (hAC5 [4]) [%] | other results
1 | Cc1cc(NC(=O)c2ccccc2F)n(-c2nc(=O)cc(C)[nH]2)n1 [AC10042, 2-Fluoro-N-(3-methyl-1-(6-methyl-4-oxo-1,4-dihydropyrimidin-2-yl)-1H-pyrazol-5-yl)benzamide] | 101 ± 0.7 | 1.5 ± 0.3 | 9 ± 4 |  |  |  |  |  |  |  | 
2 | Cc1cc(NC(=O)c2ccco2)n(-c2nc(=O)cc(C)[nH]2)n1 [AC10043, N-(3-methyl-1-(6-methyl-4-oxo-1,4-dihydropyrimidin-2-yl)-1H-pyrazol-5-yl)furan-2-carboxamide] | 92 ± 2 | 10.3 ± 2 | 16 ± 9 |  |  |  |  |  |  |  | 
3 | CCc1cc(=O)nc(-n2nc(C)cc2NC(=O)c2ccccc2F)[nH]1 [AC10048, N-(1-(6-ethyl-4-oxo-1,4-dihydropyrimidin-2-yl)-3-methyl-1H-pyrazol-5-yl)-2-fluorobenzamide] | 99 ± 2 | 0.58 ± 0.2 | 19 ± 11 |  |  |  |  |  |  |  | 
4 | CCc1cc(=O)nc(-n2nc(C)cc2NC(=O)c2cccc(F)c2)[nH]1 [AC10049, N-(1-(6-ethyl-4-oxo-1,4-dihydropyrimidin-2-yl)-3-methyl-1H-pyrazol-5-yl)-3-fluorobenzamide] | 98 ± 1 | 1.3 ± 0.2 | 26 ± 4 |  |  |  |  |  |  |  | IC50 (hAC8; Table 2, read-out: HEK-AC8 IC50): 68 ± 10 µM
5 | CCc1cc(=O)nc(-n2nc(C)cc2NC(=O)C2CC2)[nH]1 [AC10050, N-(1-(6-ethyl-4-oxo-1,4-dihydropyrimidin-2-yl)-3-methyl-1H-pyrazol-5-yl)cyclopropanecarboxamide] | 79 ± 4 | 16.7 ± 1 |  |  |  |  |  |  |  |  | 
6 | Cc1cc(NC(=O)C2CC2)n(-c2nc(=O)cc(C)[nH]2)n1 [AC10051, N-(3-methyl-1-(6-methyl-4-oxo-1,4-dihydropyrimidin-2-yl)-1H-pyrazol-5-yl)cyclopropanecarboxamide] | 4 ± 7 |  |  |  |  |  |  |  |  |  | 
7 | Cc1cc(NC(=O)c2cccc(F)c2)n(-c2nc(=O)cc(C)[nH]2)n1 [AC10057, 3-fluoro-N-(3-methyl-1-(6-methyl-4-oxo-1,4-dihydropyrimidin-2-yl)-1H-pyrazol-5-yl)benzamide] | 94 ± 1 | 3.7 ± 0.2 | 9 ± 2 |  |  |  |  |  |  |  | 
8 | CCc1cc(=O)nc(-n2nc(C)cc2NC(=O)c2ccc(Cl)cc2)[nH]1 [AC10058, 4-chloro-N-(1-(6-ethyl-4-oxo-1,4-dihydropyrimidin-2-yl)-3-methyl-1H-pyrazol-5-yl)benzamide] | 99 ± 1 | 1.2 ± 0.2 | 19 ± 4 |  |  |  |  |  |  |  | 
9 | CC1CC(C)CN(S(=O)(=O)c2ccc(C(=O)Nc3nnc(-c4cccs4)o3)cc2)C1 (stereo not shown) [Compound F0559-0346] |  |  |  | 2-fold | 99 ± 1 | 9.1 ± 2 | 118 ± 2 | −6 | 74 ± 13 | 4 | IC50 (hAC8; [14]): 17 ± 6 µM
10 | O=C(Nc1nnc(-c2ccc3c(c2)OCCO3)o1)c1ccc(Br)cc1 [Compound F0608-0011] |  |  |  | 9-fold | 101 ± 1 | 2 ± 0.2 | 125 ± 3 | −7 | 79 ± 1 | −10 | IC50 (hAC8; [14]): 18 ± 2 µM
11 | O=C(Nc1nnc(-c2ccc3c(c2)CCCC3)o1)c1ccccc1 [Compound F0608-0538] |  |  |  | 10-fold | 101 ± 1 | 2.1 ± 0.4 | 118 ± 6 | −95 | 76 ± 8 | −34 | IC50 (hAC8; [14]): 21 ± 4 µM
12 | CCc1cc(=O)[nH]c(-n2nc(C)cc2NC(=O)c2ccccc2F)n1 [Compound F2215-0213] |  |  |  |  | 99 ± 1 | 0.5 ± 0.1 | 101 ± 17 | −70 | 20 ± 1 | 9 | 
13 | CCc1c(C)nc(-n2nc(C)cc2NC(=O)c2ccco2)[nH]c1=O [Compound F2215-0772] |  |  |  | >30-fold | 100 ± 1 | 0.9 ± 0.2 | 93 ± 1 | 32 | 34 ± 7 | 13 | 
14 | CSc1ccccc1C(=O)Nc1cc(C)nn1-c1nc2c(c(=O)[nH]1)CCC2 [Compound F2215-0954] |  |  |  | >5-fold | 99 ± 1 | 5.9 ± 0.4 | 106 ± 14 | −185 | 35 ± 8 | −21 | 
15 | CSc1cccc(C(=O)Nc2nnc(C3CCCCC3)o2)c1 [Compound F2289-0107] |  |  |  | >4-fold | 99 ± 1 | 7.5 ± 2 | 117 ± 1 | −210 | 31 ± 2 | −28 | 
16 | Nc1ncnc2c1ncn2CCNCCCCCO [NB001] |  |  |  |  |  |  |  |  |  |  | chronic pain responses (inflammatory and neuropathic) (chronic pain responses [5]): markedly attenuated chronic pain responses; chronic pain responses (inflammatory and neuropathic) (chronic pain responses [6]): markedly attenuated chronic pain responses
17 | O=c1cc(C(Cl)(Cl)Cl)oc2ccc(Cl)cc12 [ST034307, 6-chloro-2-(trichloromethyl)-4H-chromen-4-one] |  |  |  |  |  |  |  |  |  |  | hAC2 % Inhib (hAC2 [7]): −142%; Viability % Veh (HEK-AC1 cells [8]): 85 ± 6 % Veh; hAC5 % Inhib (hAC5 [9]): −44%; hAC1 % Inhib (hAC1 [10]): 108 ± 10%
